Test results from patent US12529162B2, “Method of screening for peptides capable of binding to a ubiquitin protein ligase (E3)” (Phoremost Limited, priority 2019, dated 2026).
“Also recorded” adds a separate entry of the source. Read-outs that look alike come from different tables or passages of the source.

Key:
TNKS2 = target: T1, TNKS2 (Homo sapiens, UniProt Q9H2K2); assay: Western blot of TNKS2 levels in HEK293A cells transfected with PROTAC-encoding plasmids; format: cell-based; settings: 20 hours after transfection, actin loading control
T1 construct: endogenous in cells; host or cells: HEK293A
T1 sequence (Q9H2K2 1-1166): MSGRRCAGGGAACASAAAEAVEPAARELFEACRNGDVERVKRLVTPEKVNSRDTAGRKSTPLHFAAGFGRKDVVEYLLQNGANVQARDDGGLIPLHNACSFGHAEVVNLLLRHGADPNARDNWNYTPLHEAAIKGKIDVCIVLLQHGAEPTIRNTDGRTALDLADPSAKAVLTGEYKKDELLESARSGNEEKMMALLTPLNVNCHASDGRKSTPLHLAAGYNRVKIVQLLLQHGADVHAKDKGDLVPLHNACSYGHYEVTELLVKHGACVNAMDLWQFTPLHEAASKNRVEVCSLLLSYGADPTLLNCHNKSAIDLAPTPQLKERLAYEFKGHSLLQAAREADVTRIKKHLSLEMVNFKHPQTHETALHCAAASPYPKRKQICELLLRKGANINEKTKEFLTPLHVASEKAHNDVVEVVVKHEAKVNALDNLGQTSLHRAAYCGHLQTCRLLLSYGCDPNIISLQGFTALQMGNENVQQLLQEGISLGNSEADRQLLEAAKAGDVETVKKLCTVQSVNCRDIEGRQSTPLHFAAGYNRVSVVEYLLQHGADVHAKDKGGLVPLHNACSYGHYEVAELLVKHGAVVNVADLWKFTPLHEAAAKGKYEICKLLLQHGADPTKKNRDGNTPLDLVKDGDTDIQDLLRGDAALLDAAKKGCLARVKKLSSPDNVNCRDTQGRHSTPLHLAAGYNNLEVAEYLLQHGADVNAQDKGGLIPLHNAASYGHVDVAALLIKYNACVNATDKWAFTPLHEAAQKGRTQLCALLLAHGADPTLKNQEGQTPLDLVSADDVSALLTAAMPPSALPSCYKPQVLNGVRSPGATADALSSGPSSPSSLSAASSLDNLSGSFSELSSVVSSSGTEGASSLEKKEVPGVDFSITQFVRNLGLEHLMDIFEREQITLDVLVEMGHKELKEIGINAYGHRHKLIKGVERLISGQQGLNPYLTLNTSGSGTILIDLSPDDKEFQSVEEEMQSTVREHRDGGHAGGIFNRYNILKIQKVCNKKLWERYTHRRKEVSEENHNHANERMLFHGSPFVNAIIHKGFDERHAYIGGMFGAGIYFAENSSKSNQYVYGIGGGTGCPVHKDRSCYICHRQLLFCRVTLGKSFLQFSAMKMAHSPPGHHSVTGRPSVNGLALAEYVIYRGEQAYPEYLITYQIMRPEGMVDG
Source text: A DNA construct encoding for the TNKS2 binding sequence (3BP2^410-425) at the N-terminus as set out in SEQ ID NO: 1, a GGGGSS linker as set out in SEQ ID NO: 3, and the E3 binding sequence (ALAPYIP) as set out in SEQ ID NO: 2, at the C-terminus was cloned into pMOST25 vector (the full PROTAC as set out in SEQ ID NO: 4). pMOST25 is a lentiviral vector based on pCDH EF1a (System Biosciences) where the promoter was swapped for CMV and the MCS replaced by a new cassette with flanking NGS primer sites. Control constructs which (i) lacked the ALAPYIP E3 binding sequence (3BP2^410-425) as set out in SEQ ID NO: 5 or (ii) contained a double mutation which is known to disrupt HIF1α-VHL interaction (3BP2^410-425-ALAAAIP) as set out in SEQ ID NO: 6 were similarly cloned (Table 1). Neither control construct can bind to the E3 ligase and therefore there should be no change in the level of TNKS2 when cells are transduced with these. HEK293A cells were collected 20 hours after transfection, and levels of TNKS2 target protein were assessed by Western Blot (FIG. 2). Membranes were probed with primary antibodies against TNKS2 (Abcam ab155545), or actin (Abcam ab179467) as a loading control. […]
20 hours after transfection, cells were harvested and analyzed by Western Blotting. […]

GFP [1] = settings: HEK293A
Experimental: Plasmids encoding for GFP alone (control), or GFP tagged with one of the validated candidate peptide hits from the screening method, Hit (#1) (see Example 5) or Hit (#2), were transduced into HEK293A cells using lentivirus. Cells expressing tagged GFP were either untreated (DMSO treatment only) or treated with the proteasome inhibitor MG132 for 4 hours, after which they were harvested and analyzed by Western Blotting. Membranes were probed with primary antibodies against GFP (CST #2555), or actin (Abcam ab179467) as a loading control. After the addition of HRP-conjugated secondary antibodies, protein signals were detected by chemiluminescence (FIG. 9).

GFP [2] = settings: HEK293A; remark: listed apart in the source
Experimental: GFP was used as the target (test protein) in this study.
GFP-peptide expressing cells were either untreated (DMSO treatment only; ‘Peptide+vehicle’) or treated with the proteasome inhibitor MG132 (10 μM in DMSO, for 4 h) (‘Peptide+MG132’), and were then analyzed by FACS for GFP levels (FIG. 8).

TNKS2 (residues 20-800) = TNKS2 (residues 20-800) (Homo sapiens, UniProt Q9H2K2); settings: read-out: affinity of binding to TNKS2; fluorescence polarization; Guettler et al., 2011; cited from earlier work

**Q.** For “MGLPHLQRSPPDGQSFRSLEGGGGSSLDPETGEYL (3BP2(410-425) - LDPETGEYL peptide) [3BP2^410-425-LDPETGEYL]”, which “levels of TNKS2 by Western blot” value (TNKS2) is on record?
**A.** Its value is “unaffected”.

**Q.** For “MQNNPLTSGLEPSPPQCDYIRPSLTGKFAGNPWYYGKVTRHQAEMA [Hit (#1)]”, which “GFP levels by Western blot” value (GFP [1]; MG132 treated 4 hours) is on record?
**A.** The value was “GFP levels were restored”.

**Q.** And the “GFP levels by Western blot compared to GFP control” value (GFP [1]; absence of MG132)?
**A.** Its value is “almost complete depletion of GFP”.

**Q.** What about the “GFP levels by FACS compared to no peptide control” value (GFP [2]; Peptide+MG132 (10 μM, 4 h)) of the same sequence?
**A.** The value was “restored GFP levels back to that of the ‘no peptide control’ cells”.

**Q.** What about the “GFP levels by FACS compared to no peptide control” value (GFP [2]; Peptide+vehicle (DMSO only)) of the same sequence?
**A.** The value was “marked degradation of GFP”.

**Q.** With LPHLQRSPPDGQSFRS as the sequence, how does the Kd (TNKS2 (residues 20-800)) read?
**A.** Its Kd is 500 nM.

**Q.** With “MGLPHLQRSPPDGQSFRSLEGGGGSSAALAPYIP (3BP2(410-425)- ALAPYIP peptide) [3BP2^410-425-ALAPYIP]” as the sequence, how does the “levels of TNKS2 by Western blot” value (TNKS2) read?
**A.** Its value is “led to TNKS2 degradation; also recorded: markedly decreased levels of TNKS2”.
